{"source": "paper PMC5669819", "about": "(Molecular cancer therapeutics, 2017)", "key": {"PI3Kα": {"target": "PI3Kα (Homo sapiens, UniProt P42336)", "sequence (P42336 whole entry)": "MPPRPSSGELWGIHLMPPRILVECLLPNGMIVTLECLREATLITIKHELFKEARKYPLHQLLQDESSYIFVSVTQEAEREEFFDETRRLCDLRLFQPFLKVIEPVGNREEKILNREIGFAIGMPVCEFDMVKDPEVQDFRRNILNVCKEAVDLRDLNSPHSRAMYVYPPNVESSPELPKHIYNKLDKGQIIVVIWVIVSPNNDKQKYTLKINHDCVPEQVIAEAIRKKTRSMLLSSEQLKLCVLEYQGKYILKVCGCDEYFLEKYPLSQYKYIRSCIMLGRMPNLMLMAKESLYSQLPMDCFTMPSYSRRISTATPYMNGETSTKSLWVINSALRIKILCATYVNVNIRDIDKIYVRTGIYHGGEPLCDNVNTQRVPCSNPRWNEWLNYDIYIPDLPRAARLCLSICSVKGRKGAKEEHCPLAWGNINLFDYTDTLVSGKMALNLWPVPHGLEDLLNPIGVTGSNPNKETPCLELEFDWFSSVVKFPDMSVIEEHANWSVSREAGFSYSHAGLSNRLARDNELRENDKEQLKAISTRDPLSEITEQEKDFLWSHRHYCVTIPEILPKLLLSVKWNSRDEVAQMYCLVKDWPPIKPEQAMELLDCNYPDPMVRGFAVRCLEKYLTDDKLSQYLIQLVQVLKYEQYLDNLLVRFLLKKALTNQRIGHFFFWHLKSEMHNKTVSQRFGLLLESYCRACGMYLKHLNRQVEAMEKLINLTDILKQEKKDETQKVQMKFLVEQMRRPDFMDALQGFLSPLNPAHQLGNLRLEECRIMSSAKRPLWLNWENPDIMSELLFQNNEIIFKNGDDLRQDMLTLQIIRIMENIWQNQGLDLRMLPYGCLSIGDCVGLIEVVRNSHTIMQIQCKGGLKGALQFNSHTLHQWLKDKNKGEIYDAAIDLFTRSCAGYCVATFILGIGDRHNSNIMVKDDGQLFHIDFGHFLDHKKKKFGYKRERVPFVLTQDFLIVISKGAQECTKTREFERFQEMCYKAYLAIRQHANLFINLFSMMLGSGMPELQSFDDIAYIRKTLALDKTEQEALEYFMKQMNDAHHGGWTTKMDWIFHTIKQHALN", "sequence (P27986 2-724 partner)": "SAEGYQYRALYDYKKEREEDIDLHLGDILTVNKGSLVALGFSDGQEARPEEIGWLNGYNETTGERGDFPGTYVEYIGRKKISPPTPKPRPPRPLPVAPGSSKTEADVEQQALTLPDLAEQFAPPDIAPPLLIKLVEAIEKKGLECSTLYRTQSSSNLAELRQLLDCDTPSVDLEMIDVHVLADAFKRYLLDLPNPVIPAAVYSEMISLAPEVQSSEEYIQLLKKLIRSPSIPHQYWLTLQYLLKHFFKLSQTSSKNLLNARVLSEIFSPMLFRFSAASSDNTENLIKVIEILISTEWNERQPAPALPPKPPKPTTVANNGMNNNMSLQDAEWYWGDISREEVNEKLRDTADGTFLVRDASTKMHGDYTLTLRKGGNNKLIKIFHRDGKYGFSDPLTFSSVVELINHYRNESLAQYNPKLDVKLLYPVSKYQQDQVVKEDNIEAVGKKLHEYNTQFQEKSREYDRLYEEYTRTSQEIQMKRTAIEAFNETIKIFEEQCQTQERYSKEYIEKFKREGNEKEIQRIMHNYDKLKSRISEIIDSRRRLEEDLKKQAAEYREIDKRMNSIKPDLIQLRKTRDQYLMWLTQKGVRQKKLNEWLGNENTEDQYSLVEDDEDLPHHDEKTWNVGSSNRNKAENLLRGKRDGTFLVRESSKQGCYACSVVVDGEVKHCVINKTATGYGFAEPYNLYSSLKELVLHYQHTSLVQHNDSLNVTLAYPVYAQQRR", "assay": "Adapta TR-FRET lipid kinase assay with purified enzyme", "format": "biochemical"}, "MEK1": {"target": "MEK1 (Homo sapiens, UniProt Q02750)", "sequence (Q02750 whole entry)": "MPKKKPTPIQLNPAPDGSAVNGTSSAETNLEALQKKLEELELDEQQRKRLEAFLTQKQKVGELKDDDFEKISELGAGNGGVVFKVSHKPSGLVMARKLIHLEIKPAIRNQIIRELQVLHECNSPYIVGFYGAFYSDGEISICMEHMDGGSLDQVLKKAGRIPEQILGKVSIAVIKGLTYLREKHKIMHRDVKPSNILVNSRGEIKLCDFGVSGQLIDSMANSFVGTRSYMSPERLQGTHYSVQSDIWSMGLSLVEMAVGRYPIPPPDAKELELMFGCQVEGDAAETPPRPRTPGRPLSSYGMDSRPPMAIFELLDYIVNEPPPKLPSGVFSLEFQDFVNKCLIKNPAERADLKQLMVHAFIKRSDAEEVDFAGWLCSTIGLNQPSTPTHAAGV", "format": "biochemical"}}, "data": [{"smiles": "O=C(NOCCOCCOCCOCCN1CCN(c2nc(N3CCOCC3)nc(-n3c(C(F)F)nc4ccccc43)n2)CC1)c1ccc(F)c(F)c1Nc1ccc(I)cc1F", "note": "[ST-162]", "values": [{"measurement": "IC50", "setting": "PI3Kα", "value": 191, "unit": "nM"}, {"measurement": "IC50", "setting": "MEK1", "value": 398, "unit": "nM"}]}]}
